The values that follow come from patent US12129258B2, “Diaryl macrocyclic compound and pharmaceutical composition, and use thereof” (PrimeGene (Beijing) Co., Ltd., priority 2018, dated 2024).

In one data set the test system is Ba/F3 LMNA-NTRK3-G623R. Put plainly: Cell proliferation inhibition (CellTiter-Glo), Ba/F3 LMNA-NTRK3-G623R. In kind it is cell-based. The note with it: Mus musculus, BaF3, 72 h, 72 hrs, read-out: IC50 proliferation Ba/F3 LMNA-NTRK3-G623R. (In ATP-based viability assays light output follows the ATP content of the culture.)
For a further data set, the target named is ROS1-G2032R (Homo sapiens (Human), UniProt P08922, G2032R). Kind of data set: LanceUltra kinase activity assay, ROS1-G2032R. Type of data set: biochemical. The conditions noted are these: 2.6 μM ATP. The protocol:
5 μl 40 mM EDTA was used to stop the reaction. Then 2 nM Europium-anti-phosphotyrosine (PT66) (PerkinElmer, Cat. AD0069) was added and incubated at room temperature for 60 mins. […] The IC50 values of the compounds were calculated using XLFIT5 (IDBS) software.

The next data set deals with TRKC (Homo sapiens (Human), UniProt Q16288). Put plainly: Mobility shift assay, TRKC kinase. The conditions noted are these: read-out: TRKC IC50, ATP 44.4 μM.
Data set [1] can be described thus: Blood-to-brain distribution in rats. The conditions noted are these: male, SD, rat, 10 mg/kg single oral gavage. Type of data set: in vivo. The protocol: 7. Blood-to-Brain Distribution
Male SD rats were grouped, each group having 12 rats. Each group was given the compound of Examples (10 mg/kg) by single oral gavage. The animals were fasted overnight from 10 hours before administration to 4 hours after administration. The rats were killed at 0.5, 1, 4 and 12 hours after administration, and blood and brain tissues were collected. The samples were centrifuged at 4000 rpm at 4° C. for 5 min and plasma was transferred into the centrifuge tube and stored at −80° C. until analysis. The extract from the plasma extracted by protein precipitation was analyzed by LC/MS/MS.

The next data set deals with Ba/F3 LMNA-NTRK1-G595R. Put plainly: Cell proliferation inhibition (CellTiter-Glo), Ba/F3 LMNA-NTRK1-G595R. In kind it is cell-based. The note with it: Mus musculus, BaF3, 72 h. The text has this: (§1) 4. Inhibitory Effect of Compounds on the Proliferation of TRK Fusion and Mutant Stable Cell Lines (IC50)
(§2) Six cell lines including Ba/F3 LMNA-NTRK1-WT, Ba/F3 LMNA-NTRK1-G595R, Ba/F3 ETV6-NTRK2-WT, Ba/F3 ETV6-NTRK2-G639R, Ba/F3 ETV6-NTRK2-G639R and Ba/F3 ETV6-NTRK3-G623R were used in this experiment.
(§3) The operation is described briefly as follows:
(§4) The cells in logarithmic growth phase were harvested to ensure that the cell viability was above 90%. […] Then each well containing the cells of the 96-well plate was added the compound solutions, 3 wells for each compound solution, and continued to incubate for another 72 hrs. Then CellTiter-Glo® kit (Promega, Cat #G7572) was used to do the detection. First, the CTG reagent was melted and the cell plate was balanced to room temperature. The same volume of CTG solution was added into each well and vibrated on the shaker for 5 minutes to lyse the cells. The cell plate was kept at room temperature for 20 minutes to stabilize the luminescent signal. […] Cell survival rate (%)=(1umdrug−1ummedium)/(1umcell−lummedium)×100%

Another data set deals with TRKA (Homo sapiens (Human), UniProt P04629). Put plainly: HTRF kinase activity assay, TRKA. In kind it is biochemical. The note with it: 90 μM ATP. The protocol:
(§5) The IC50 values of the compounds were calculated using XLFIT5 (IDBS) software.
(In general: TR-FRET usually uses a lanthanide donor and a delayed reading to cut background.)

For a further data set, the system named is Ba/F3 LMNA-NTRK1-WT. Kind of data set: Cell proliferation inhibition (CellTiter-Glo), Ba/F3 LMNA-NTRK1-WT. In kind it is cell-based. The note with it: Mus musculus, BaF3, 72 h.
Text: as §1, §2, §3, §4

A further data set addresses ALK-L1196M (Homo sapiens (Human), UniProt Q9UM73, L1196M). Kind of data set: HTRF kinase activity assay, ALK-L1196M. The note with it: 30 μM ATP. Type of data set: biochemical. The method, then: as §5
In a further data set the test system is Ba/F3 ETV6-NTRK2-WT. Kind of data set: Cell proliferation inhibition (CellTiter-Glo), Ba/F3 ETV6-NTRK2-WT. In kind it is cell-based. The note with it: Mus musculus, BaF3, 72 h, 72 hrs, read-out: IC50 proliferation Ba/F3 ETV6-NTRK2-WT. The method, then: as §1
Six cell lines including Ba/F3 LMNA-NTRK1-WT, Ba/F3 LMNA-NTRK1-G595R, Ba/F3 ETV6-NTRK2-WT, Ba/F3 ETV6-NTRK2-G639R, Ba/F3 ETV6-NTRK2-G639R and Ba/F3 ETV6-NTRK3-G623R were used in this experiment. For the six cell lines, the maximum test concentration of the compound was 1 μM, 1 μM, 10 μM, […], 1 μM and 10 μM, were 3.16-fold gradient diluted to obtain 9 samples.
as §3
The cells in logarithmic growth phase were harvested to ensure that the cell viability was above 90%. 3000 cell/well were seeded in 96-well plate (Corning, Cat #3603). The cells were incubated overnight with 5% CO2, 95% humidity at 37° C. Then each well containing the cells of the 96-well plate was added the compound solutions, 3 wells for each compound solution, and continued to incubate for another 72 hrs. Then CellTiter-Glo® kit (Promega, Cat #G7572) was used to do the detection. First, the CTG reagent was melted and the cell plate was balanced to room temperature. The same volume of CTG solution was added into each well and vibrated on the shaker for 5 minutes to lyse the cells. The cell plate was kept at room temperature for 20 minutes to stabilize the luminescent signal. The luminescent value was collected by SpectraMax microplate detector (MD, 2104-0010A). […] Cell survival rate (%)=(1umdrug−1ummedium)/(1umcell−lummedium)×100%

The target of the next data set is ROS1 (Homo sapiens (Human), UniProt P08922). Kind of data set: Mobility shift assay, ROS1 kinase. In kind it is biochemical. The note with it: ATP 26.7 μM. The text has this:
The operation is described as follows:
Conversion %_Sample: conversion rate of sample;

Like-named read-outs stand apart in the source and are kept apart here.

ROS1-G2032R, sequence (P08922 28-2347 G2032R): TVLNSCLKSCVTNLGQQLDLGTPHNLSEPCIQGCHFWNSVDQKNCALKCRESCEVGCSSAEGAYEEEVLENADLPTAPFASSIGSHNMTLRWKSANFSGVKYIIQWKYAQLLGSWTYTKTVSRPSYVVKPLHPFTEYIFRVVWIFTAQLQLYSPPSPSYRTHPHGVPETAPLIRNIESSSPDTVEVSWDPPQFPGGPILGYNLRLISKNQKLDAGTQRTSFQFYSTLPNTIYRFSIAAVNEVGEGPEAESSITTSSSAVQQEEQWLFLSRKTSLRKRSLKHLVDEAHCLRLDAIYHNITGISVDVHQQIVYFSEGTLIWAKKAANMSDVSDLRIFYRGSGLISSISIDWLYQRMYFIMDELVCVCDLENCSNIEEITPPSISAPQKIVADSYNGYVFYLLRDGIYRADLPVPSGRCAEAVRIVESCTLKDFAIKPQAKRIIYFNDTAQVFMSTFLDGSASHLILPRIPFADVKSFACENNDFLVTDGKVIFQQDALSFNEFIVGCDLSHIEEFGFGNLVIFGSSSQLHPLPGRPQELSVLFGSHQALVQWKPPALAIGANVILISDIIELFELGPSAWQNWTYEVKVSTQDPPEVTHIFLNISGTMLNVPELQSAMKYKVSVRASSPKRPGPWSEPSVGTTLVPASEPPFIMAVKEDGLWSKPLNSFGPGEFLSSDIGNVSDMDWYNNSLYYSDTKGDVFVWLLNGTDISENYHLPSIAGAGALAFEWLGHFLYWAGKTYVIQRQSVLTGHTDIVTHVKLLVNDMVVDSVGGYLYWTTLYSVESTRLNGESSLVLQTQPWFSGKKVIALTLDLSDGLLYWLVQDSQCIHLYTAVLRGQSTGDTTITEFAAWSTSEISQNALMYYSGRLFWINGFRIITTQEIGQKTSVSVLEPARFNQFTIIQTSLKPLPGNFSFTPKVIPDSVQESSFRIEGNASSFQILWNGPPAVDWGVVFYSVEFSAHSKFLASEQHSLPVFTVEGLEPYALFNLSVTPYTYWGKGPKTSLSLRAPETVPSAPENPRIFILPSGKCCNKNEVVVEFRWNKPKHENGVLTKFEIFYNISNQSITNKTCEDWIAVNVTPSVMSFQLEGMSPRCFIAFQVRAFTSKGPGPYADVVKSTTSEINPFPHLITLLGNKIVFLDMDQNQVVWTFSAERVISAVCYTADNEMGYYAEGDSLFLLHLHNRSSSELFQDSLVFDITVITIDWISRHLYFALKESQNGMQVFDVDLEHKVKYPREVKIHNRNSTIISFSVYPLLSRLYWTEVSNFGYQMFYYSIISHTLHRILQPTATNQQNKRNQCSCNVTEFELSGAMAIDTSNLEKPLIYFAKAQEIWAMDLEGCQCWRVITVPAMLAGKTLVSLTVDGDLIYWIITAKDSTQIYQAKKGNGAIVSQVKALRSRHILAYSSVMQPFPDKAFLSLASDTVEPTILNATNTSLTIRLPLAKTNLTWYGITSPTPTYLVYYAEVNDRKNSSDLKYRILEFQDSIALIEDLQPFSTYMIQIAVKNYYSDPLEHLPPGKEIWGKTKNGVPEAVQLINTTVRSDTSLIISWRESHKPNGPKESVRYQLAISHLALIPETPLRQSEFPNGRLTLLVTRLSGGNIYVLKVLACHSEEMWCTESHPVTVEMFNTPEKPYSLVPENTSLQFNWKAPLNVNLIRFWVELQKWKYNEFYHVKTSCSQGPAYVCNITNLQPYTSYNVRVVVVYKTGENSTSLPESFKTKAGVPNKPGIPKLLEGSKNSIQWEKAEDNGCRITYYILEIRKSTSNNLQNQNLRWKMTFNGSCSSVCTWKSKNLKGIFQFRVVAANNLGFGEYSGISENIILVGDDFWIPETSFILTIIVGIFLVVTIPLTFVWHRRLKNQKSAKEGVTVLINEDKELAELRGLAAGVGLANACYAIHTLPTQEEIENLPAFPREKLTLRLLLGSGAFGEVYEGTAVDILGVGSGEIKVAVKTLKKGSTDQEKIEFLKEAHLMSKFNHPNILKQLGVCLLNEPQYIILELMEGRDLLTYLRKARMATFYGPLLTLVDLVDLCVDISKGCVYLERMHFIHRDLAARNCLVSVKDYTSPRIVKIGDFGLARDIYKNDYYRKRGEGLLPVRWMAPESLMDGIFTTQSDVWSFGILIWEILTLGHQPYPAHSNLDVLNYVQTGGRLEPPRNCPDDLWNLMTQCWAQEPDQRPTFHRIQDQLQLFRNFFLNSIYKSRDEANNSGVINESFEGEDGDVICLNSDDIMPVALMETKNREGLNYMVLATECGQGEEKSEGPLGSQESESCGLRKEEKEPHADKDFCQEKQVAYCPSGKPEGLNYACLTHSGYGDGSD
ROS1, sequence (P08922 28-2347): as the sequence (P08922 28-2347 G2032R) above, with R2005G counted along it
ALK-L1196M, sequence (Q9UM73 19-1620 L1196M): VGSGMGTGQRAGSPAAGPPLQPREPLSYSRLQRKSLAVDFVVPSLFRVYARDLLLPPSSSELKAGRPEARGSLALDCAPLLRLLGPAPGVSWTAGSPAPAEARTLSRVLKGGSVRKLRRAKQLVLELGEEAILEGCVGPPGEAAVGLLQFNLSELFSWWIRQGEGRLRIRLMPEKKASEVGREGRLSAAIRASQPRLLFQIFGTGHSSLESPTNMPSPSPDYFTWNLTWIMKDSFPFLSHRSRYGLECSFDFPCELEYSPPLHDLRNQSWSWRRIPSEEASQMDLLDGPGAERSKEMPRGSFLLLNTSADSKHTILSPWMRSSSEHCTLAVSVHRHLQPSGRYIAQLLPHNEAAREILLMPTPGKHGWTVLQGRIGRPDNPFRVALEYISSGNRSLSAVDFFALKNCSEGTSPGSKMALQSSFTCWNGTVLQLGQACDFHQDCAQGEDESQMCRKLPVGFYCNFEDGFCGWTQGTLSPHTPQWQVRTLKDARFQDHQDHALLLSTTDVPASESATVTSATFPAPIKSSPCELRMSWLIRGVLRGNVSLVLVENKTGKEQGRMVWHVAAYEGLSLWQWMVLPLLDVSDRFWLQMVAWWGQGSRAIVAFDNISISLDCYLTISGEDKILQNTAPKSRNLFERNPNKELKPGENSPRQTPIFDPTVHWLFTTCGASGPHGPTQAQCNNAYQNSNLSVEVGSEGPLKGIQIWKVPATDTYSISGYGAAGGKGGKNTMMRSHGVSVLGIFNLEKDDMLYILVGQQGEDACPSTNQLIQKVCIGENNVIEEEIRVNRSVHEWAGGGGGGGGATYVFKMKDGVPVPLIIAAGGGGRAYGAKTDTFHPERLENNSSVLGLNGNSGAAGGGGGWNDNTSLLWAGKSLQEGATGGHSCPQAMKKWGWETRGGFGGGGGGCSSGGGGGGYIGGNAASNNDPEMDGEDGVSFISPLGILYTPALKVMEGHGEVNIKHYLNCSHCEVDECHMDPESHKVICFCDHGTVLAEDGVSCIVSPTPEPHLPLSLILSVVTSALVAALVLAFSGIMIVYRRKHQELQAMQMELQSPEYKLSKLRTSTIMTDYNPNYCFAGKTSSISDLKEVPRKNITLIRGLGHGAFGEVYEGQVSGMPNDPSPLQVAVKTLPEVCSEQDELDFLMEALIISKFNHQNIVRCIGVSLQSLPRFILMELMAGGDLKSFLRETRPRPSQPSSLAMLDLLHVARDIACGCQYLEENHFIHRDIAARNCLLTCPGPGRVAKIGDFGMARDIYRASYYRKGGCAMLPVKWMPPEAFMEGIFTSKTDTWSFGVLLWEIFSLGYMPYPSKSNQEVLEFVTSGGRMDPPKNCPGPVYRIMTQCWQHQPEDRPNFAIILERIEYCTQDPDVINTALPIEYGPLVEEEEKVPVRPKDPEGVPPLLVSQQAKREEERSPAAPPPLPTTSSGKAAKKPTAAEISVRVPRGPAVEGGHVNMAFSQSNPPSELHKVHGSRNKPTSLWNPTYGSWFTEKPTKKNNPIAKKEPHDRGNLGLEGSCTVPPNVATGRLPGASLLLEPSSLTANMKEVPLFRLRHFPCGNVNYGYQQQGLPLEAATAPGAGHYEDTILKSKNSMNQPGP
TRKC, sequence (Q16288 other isoform, or with tags, fused parts or gaps isoform Q16288-3): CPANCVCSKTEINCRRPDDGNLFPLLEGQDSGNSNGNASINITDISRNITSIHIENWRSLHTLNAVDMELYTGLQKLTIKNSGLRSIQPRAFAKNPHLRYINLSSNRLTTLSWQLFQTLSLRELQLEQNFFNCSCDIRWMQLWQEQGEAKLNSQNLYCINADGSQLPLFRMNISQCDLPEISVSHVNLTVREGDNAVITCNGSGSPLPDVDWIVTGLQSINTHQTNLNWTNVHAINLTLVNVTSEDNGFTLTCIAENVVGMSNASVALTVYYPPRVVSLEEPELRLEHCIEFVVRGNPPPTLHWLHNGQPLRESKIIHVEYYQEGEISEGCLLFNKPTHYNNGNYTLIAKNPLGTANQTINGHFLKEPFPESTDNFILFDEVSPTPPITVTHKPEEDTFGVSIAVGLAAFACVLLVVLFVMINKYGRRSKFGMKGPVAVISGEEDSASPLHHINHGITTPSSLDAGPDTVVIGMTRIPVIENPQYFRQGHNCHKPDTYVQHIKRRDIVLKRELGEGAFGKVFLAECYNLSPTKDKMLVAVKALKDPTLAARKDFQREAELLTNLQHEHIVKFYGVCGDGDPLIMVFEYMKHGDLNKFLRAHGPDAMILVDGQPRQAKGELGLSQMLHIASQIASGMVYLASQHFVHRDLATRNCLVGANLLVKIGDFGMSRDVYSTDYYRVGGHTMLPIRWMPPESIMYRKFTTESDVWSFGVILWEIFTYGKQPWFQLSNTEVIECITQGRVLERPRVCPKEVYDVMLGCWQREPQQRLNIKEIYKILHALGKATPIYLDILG
Procedure for TRKC: The inhibitory activity of compounds on TRKA, TRKB, TRKC and ROS1 kinase was analyzed with Mobility shift assay. The screening platform is MSA based microfluidic chip technology, which applies the basic concept of capillary electrophoresis to microfluidic environment. The substrate used in the experiment is a poly-peptide labeled with fluorescent. Under the catalysis of enzyme in the reaction system, the substrate is transformed into a product, with the charge changed accordingly. MSA technology could detect the substrate and the product with different charge separately.
The compound powder was dissolved in 100% DMSO (Sigma, Cat. D8418-1l) to prepare a 10 mM storage solution. […] The reaction was carried out at room temperature for 30 min/40 min/20 min/20 min respectively. After the reaction was terminated, the conversion rate was read by Caliper EZ Reader II.
Conversion %_Min: mean value of negative control, representing the conversion rate without enzyme activity;
Conversion %_Max: mean value of positive control, which represents the conversion rate reading without compound inhibition.
Taking the log value of concentration as X axis and the percentage inhibition rate as Y axis, the dose response curve was fitted by the analysis software GraphPad Prism 5, thus the IC50 value of each compound on enzyme activity inhibition was obtained.

`C[C@H]1COC(=O)c2cnn3ccc(nc23)N[C@H](C)c2cc(F)ccc2O1` [Example 1, (1^3E,1^4E,3R,6S)-4^5-fluoro-3,6-dimethyl-5,8-dioxa-2-aza-1(5,3)-pyrazolo[1,5-a]pyrimidina-4(1,2)-benzenacyclononaphan-9-one]: the IC50 in the data set with Ba/F3 LMNA-NTRK3-G623R (test batch marked #) was 8.34 nM; in the data set with Ba/F3 LMNA-NTRK3-G623R (test batch marked *) it was 8.4 nM; on ROS1-G2032R it was 0.36 nM; on TRKC it was 0.61 nM; in the data set with Ba/F3 LMNA-NTRK1-G595R (test batch marked #), 1.34 nM; with Ba/F3 LMNA-NTRK1-G595R (test batch marked *), 7.8 nM. Further, the IC50 worked out at 0.13 nM against TRKA; 1.04 nM with Ba/F3 LMNA-NTRK1-WT (test batch marked #); 5.4 nM in the data set with Ba/F3 LMNA-NTRK1-WT (test batch marked *); 50 nM on ALK-L1196M; 4.24 nM in the data set with Ba/F3 ETV6-NTRK2-WT (test batch marked #); 7.8 nM in the data set with Ba/F3 ETV6-NTRK2-WT (test batch marked *). Further, on ROS1, the IC50 amounted to 0.33 nM. In addition, the Kp (in general, the ratio of the level in a tissue or fluid to that in plasma or blood) in data set [1] (brain/plasma, AUC0-inf ratio) stood at 1.14. The AUC(0-inf) stood at 20.8 µM·h in data set [1] (brain, read-out: AUC0-inf Brain) and 18.2 µM·h in data set [1] (plasma, read-out: AUC0-inf Plasma).
